Experimental data as given in patent US8551999B2, “Heterocyclic compound and pharmaceutical composition thereof” (Otsuka Pharmaceutical Co., Ltd., priority 2007, dated 2013).

| Compound | melting point |
| --- | --- |
| CC(C)Oc1ccc(CN2CCN(C(=O)c3cc4ccc(Oc5ncc(N(C)S(=O)(=O)c6ccc(C(F)(F)F)cc6)cn5)cc4n3C)CC2)cc1 [Example 42, N-(2-{2-[4-(4-Isopropoxybenzyl)piperazine-1-carbonyl]-1-methyl-1H-indol-6-yloxy}pyrimidin-5-yl)-N-methyl-4-trifluoromethyl-benzenesulfonamide] | 186.6 to 187.3 °C |
| CN(C(=O)c1ccc(C(F)(F)F)cc1)c1ccc(Oc2ccc3c(c2)cc(C(=O)N2CCN(Cc4ccc(OCCF)cc4)CC2)n3C)nc1.O=C(O)/C=C\C(=O)O [Example 408, N-[6-(2-{4-[4-(2-Fluoroethoxy)benzyl]piperazine-1-carbonyl}-1-methyl-1H-indol-5-yloxy)pyridin-3-yl]-N-methyl-4-trifluoromethyl-benzamide maleate] | 152 to 154 °C |
| Br.Cn1c(C(=O)N2CCN(Cc3ccc4c(c3)OCO4)CC2)cc2cc(Oc3ccc(NC(=O)c4ccc(-n5cccc5)cc4)cn3)ccc21 [Example 11, N-{6-[2-(4-Benzo[1,3]dioxol-5-ylmethylpiperazine-1-carbonyl)-1-methyl-1H-indol-5-yloxy]pyridin-3-yl}-4-pyrrol-1-ylbenzamide hydrobromide] | 227 to 232 °C (dec.) |
| Br.Cn1c(C(=O)N2CCN(Cc3ccc4c(c3)OC(F)(F)O4)CC2)cc2ccc(Oc3ccc(NC(=O)c4ccc(Cl)c(Cl)c4)cn3)cc21 [Example 467, 3,4-Dichloro-N-(6-{2-[4-(2,2-difluorobenzo[1,3]dioxol-5-yl-methyl)piperazine-1-carbonyl]-1-methyl-1H-indol-6-yloxy}pyridin-3-yl)benzamide hydrobromide] | 253 to 254.8 °C |
| CCCOc1ccc(CN2CCN(C(=O)c3cc4ccc(Oc5ccc(N(C)C(=O)c6ccc(OC(F)F)cc6)cn5)cc4n3C)CC2)cc1.Cl | 226.9 to 229 °C |
| CC(C)Oc1ccc(CN2CCN(C(=O)c3cc4ccc(Oc5ccc(N(C)C(=O)c6ccc(C(F)(F)F)cc6)cn5)cc4n3C)CC2)cn1.O=C(O)/C=C\C(=O)O [Example 444, N-(6-{2-[4-(6-Isopropoxypyridin-3-ylmethyl)piperazine-1-carbonyl]-1-methyl-1H-indol-6-yloxy}pyridin-3-yl)-N-methyl-4-tri-fluoromethylbenzamide maleate] | 156.8 to 157.4 °C |
| COc1ccc(CN2CCN(C(=O)c3cc4cc(Oc5ccc(N(C)C(=O)c6ccc(Cl)c(Cl)c6)cn5)ccc4n3C)CC2)nc1.O=C(O)/C=C\C(=O)O [Example 389, 3,4-Dichloro-N-(6-{2-[4-(5-methoxypyridin-2-ylmethyl)piperazine-1-carbonyl]-1-methyl-1H-indol-5-yloxy}pyridin-3-yl)-N-methyl-benzamide maleate] | 155 to 156 °C |
| Cc1cc(C)c(S(=O)(=O)Nc2ccc(Oc3ccc4cc(C(=O)N5CCN(Cc6ccc(OCC(F)(F)F)cc6)CC5)n(C)c4c3)nc2)c(C)c1.Cl | 191.3 to 192.5 °C |
| CC(C)Oc1ccc(CN2CCN(C(=O)c3cc4ccc(Oc5ccc(N(C)S(=O)(=O)c6ccc(Cl)c(Cl)c6)cn5)cc4n3C)CC2)cn1 [Example 517, 3,4-Dichloro-N-(6-{2-[4-(6-isopropoxypyridin-3-ylmethyl)-piperazine-1-carbonyl]-1-methyl-1H-indol-6-yloxy}pyridin-3-yl)-N-methylbenzenesulfonamide] | 179.1 to 179.7 °C |
| Br.CN(C(=O)c1ccc(Cl)c(Cl)c1)c1ccc(Oc2ccc3cc(C(=O)N4CCN(Cc5ccc(OC(CF)CF)cc5)CC4)n(C)c3c2)nc1 [Example 485, 3,4-Dichloro-N-[6-(2-{4-[4-(2-fluoro-1-fluoromethylethoxy)-benzyl]piperazine-1-carbonyl}-1-methyl-1H-indol-6-yloxy)pyridin-3-yl]-N-methylbenzamide hydrobromide] | 188.2 to 191.8 °C |
| Br.CN(C(=O)c1ccc(C(F)(F)F)cc1)c1ccc(Oc2cccc3c2cc(C(=O)N2CCN(Cc4ccc(C#N)cc4)CC2)n3C)nc1 [Example 326, N-(6-{2-[4-(4-Cyanobenzyl)piperazine-1-carbonyl]-1-methyl-1H-indol-4-yloxy}pyridin-3-yl)-N-methyl-4-trifluoromethylbenzamide hydrobromide] | 273 to 276 °C |
| Br.CCOc1ccc(CN2CCN(C(=O)c3cc4cc(Oc5ccc(NC(=O)c6ccc(C(F)(F)F)cc6)cn5)ccc4n3C)CC2)cc1OCC [Example 340, N-(6-{2-[4-(3,4-Diethoxybenzyl)piperazine-1-carbonyl]-1-methyl-1H-indol-5-yloxy}pyridin-3-yl)-4-trifluoromethylbenzamide hydrobromide] | 196 to 198 °C |
| Br.CCc1ccc(CN2CCN(C(=O)c3cc4cc(Oc5ccc(NC(=O)c6ccc(C(F)(F)F)cc6)cn5)ccc4n3C)CC2)cc1 [Example 390, N-(6-{2-[4-(4-Ethylbenzyl)piperazine-1-carbonyl]-1-methyl-1H-indol-5-yloxy}pyridin-3-yl)-4-trifluoromethylbenzamide hydrobromide] | 239 to 241 °C |
| Br.CN(C(=O)c1ccc(C(F)(F)F)cc1Cl)c1ccc(Oc2ccc3cc(C(=O)N4CCN(Cc5ccc(OCC(F)(F)F)cc5)CC4)n(C)c3c2)nc1 [Example 449, 2-Chloro-N-methyl-N-[6-(1-methyl-2-{4-[4-(2,2,2-trifluoroethoxy)-benzyl]piperazine-1-carbonyl}-1H-indol-6-yloxy)pyridin-3-yl]-4-trifluoromethylbenzamide hydrobromide] | 239.5 to 240.6 °C |
| Br.CN(C(=O)c1ccc(C(F)(F)F)cc1F)c1ccc(Oc2ccc3c(c2)cc(C(=O)N2CCN(Cc4ccc5c(c4)OCO5)CC2)n3C)nc1 [Example 319, N-{6-[2-(4-Benzo[1,3]dioxol-5-ylmethylpiperazine-1-carbonyl)-1-methyl-1H-indol-5-yloxy]pyridin-3-yl}-2-fluoro-N-methyl-4-tri-fluoromethylbenzamide hydrobromide] | 187 to 190 °C |
| Cn1c(C(=O)N2CCN(C3CCOCC3)CC2)cc2cc(Oc3ccc(NS(=O)(=O)c4ccc(C(F)(F)F)cc4)cn3)ccc21 [Example 332, N-(6-{1-Methyl-2-[4-(tetrahydropyran-4-yl)piperazine-1-carbonyl]-1H-indol-5-yloxy}pyridin-3-yl)-4-trifluoromethylbenzene-sulfonamide] | 174 to 178 °C |
| Br.CCN(C(=S)Nc1ccc(Cl)c(Cl)c1)c1ccc(Oc2ccc3c(c2)cc(C(=O)N2CCN(Cc4ccccc4)CC2)n3C)nc1 [Example 581, 1-{6-[2-(4-Benzylpiperazine-1-carbonyl)-1-methyl-1H-indol-5-yl-oxy]pyridin-3-yl}-3-(3,4-dichlorophenyl)-1-ethylthiourea hydrobromide] | 163 to 168 °C |
| CN(C(=O)c1ccc(C(F)(F)F)cc1)c1ccc(Oc2ccc3c(c2)cc(C(=O)N2CCN(Cc4ccccn4)CC2)n3C)nc1.O=C(O)C(=O)O.O=C(O)C(=O)O [Example 561, N-Methyl-N-{6-[1-methyl-2-(4-pyridin-2-ylmethylpiperazine-1-carbonyl)-1H-indol-5-yloxy]pyridin-3-yl}-4-trifluoromethyl-benzamide dioxalate] | 114 to 117 °C |
| Cn1c(C(=O)N2CCN(Cc3ccc4c(c3)OCO4)CC2)cc2cc(Oc3ccc(NC(=O)c4ccc(-n5cccc5)nc4)cn3)ccc21 [Example 225, N-{6-[2-(4-Benzo[1,3]dioxol-5-ylmethylpiperazine-1-carbonyl)-1-methyl-1H-indol-5-yloxy]pyridin-3-yl}-6-pyrrol-1-ylnicotinamide] | 155 to 158 °C |
| Cc1ccc(S(=O)(=O)N(C)c2ccc(Oc3ccc4cc(C(=O)N5CCN(Cc6ccc(OC(C)C)nc6)CC5)n(C)c4c3)nc2)cc1 [Example 534, N-(6-{2-[4-(6-Isopropoxypyridin-3-ylmethyl)piperazine-1-carbonyl]-1-methyl-1H-indol-6-yloxy}pyridin-3-yl)-4,N-dimethyl-benzenesulfonamide] | 131.1 to 132.8 °C |
| Cl.Cn1c(C(=O)N2CCN(Cc3ccc(OC(F)F)cc3)CC2)cc2ccc(Oc3ccc(NC(=O)c4ccc(C(F)(F)F)cc4F)cn3)cc21 | 265.3 to 265.8 °C |
| Br.CN(C(=O)c1ccc(C(F)(F)F)cc1Cl)c1ccc(Oc2ccc3cc(C(=O)N4CCN(Cc5ccc(OCC(F)F)cc5)CC4)n(C)c3c2)nc1 [Example 448, 2-Chloro-N-[6-(2-{4-[4-(2,2-difluoroethoxy)benzyl]piperazine-1-carbonyl}-1-methyl-1H-indol-6-yloxy)pyridin-3-yl]-N-methyl-4-tri-fluoromethylbenzamide hydrobromide] | 232.4 to 232.8 °C |
| Br.CCCOc1ccc(CN2CCN(C(=O)c3cc4ccc(Oc5ccc(N(C)C(=O)c6ccc(Cl)c(Cl)c6)cn5)cc4n3C)CC2)cc1 [Example 487, 3,4-Dichloro-N-methyl-N-(6-{1-methyl-2-[4-(4-propoxybenzyl)-piperazine-1-carbonyl]-1H-indol-6-yloxy}pyridin-3-yl)benzamide hydrobromide] | 204.9 to 208.5 °C |
| Br.CCOc1ccc(CN2CCN(C(=O)c3cc4cc(Oc5cc(C)c(N(C)C(=O)c6ccc(C(F)(F)F)cc6)cn5)ccc4n3C)CC2)cc1 [Example 365, N-(6-{2-[4-(4-Ethoxybenzyl)piperazine-1-carbonyl]-1-methyl-1H-indol-5-yloxy}-4-methylpyridin-3-yl)-N-methyl-4-trifluoromethyl-benzamide hydrobromide] | 163 to 166 °C |
| Cc1ccc(S(=O)(=O)N(C)c2ccc(Oc3ccc4cc(C(=O)N5CCN(Cc6ccc(OCC(F)F)cc6)CC5)n(C)c4c3)nc2)cc1 [Example 524, N-[6-(2-{4-[4-(2,2-Difluoroethoxy)benzyl]piperazine-1-carbonyl}-1-methyl-1H-indol-6-yloxy)pyridin-3-yl]-4,N-dimethylbenzene-sulfonamide] | 121.9 to 122.5 °C |
| Br.CCOc1ccc(CN2CCN(C(=O)c3cc4cc(Oc5cc(C)c(N(C)C(=O)c6ccc(Cl)c(Cl)c6)cn5)ccc4n3C)CC2)cc1 [Example 366, 3,4-Dichloro-N-(6-{2-[4-(4-ethoxybenzyl)piperazine-1-carbonyl]-1-methyl-1H-indol-5-yloxy}-4-methylpyridin-3-yl)-N-methylbenzamide hydrobromide] | 201 to 204 °C |
